Test: Caco-2 membrane permeability assay
Type: in vitro ADME
Settings: human; Caco-2, apical pH 6.5, basolateral pH 7.4
Procedure: The membrane permeability of the molecule of the present disclosure was evaluated. Samples were analyzed by LC-MS to estimate the apparent permeability coefficient (Papp) of the compounds across Caco-2 cell monolayers, with the apical chamber at pH 6.5 and the basolateral chamber at pH 7.4. Active efflux transport of compounds can be blocked using inhibitors of P-gp efflux transporter, BCRP, and MRP2 (50 μM quinidine, 30 μM benzbromarone, and 20 μM sulfasalazine). The data were used to determine apparent permeability (Papp).
[formula] • where VA is the volume of the receptor pore (in mL), Area is the surface area of the membrane (0.143 cm^2 for Transwell-96 well permeable scaffolds), and time is the total transport time (in seconds).

Papp A→B: 3.2 ×10⁻⁶ cm/s
Papp B→A: 21 ×10⁻⁶ cm/s
Structure (SMILES): CCc1c(N2CCN(C(=O)c3ncnc(C)c3O)CC2)c(=O)n2nc(C3=CCOCC3)nc2n1CC(=O)Nc1ccc(C(F)(F)F)c2ccoc12 [Compound H22]
